Results on 50 molecules are retold here after US7671054B1, “Reverse-turn mimetics and method relating thereto” (Choongwae Pharma Corporation, priority 2001, dated 2010).

This assay concerns TCF4/β-catenin transcription (TOPFlash) in SW480 cells. Nature of the assay: Reporter gene assay (TOPFlash luciferase). In kind it is cell-based. To be noted: Homo sapiens, SW480, Table 4; Reporter gene assay as described in Example 6; read-out: IC50. As for the experimental part:
SW480 cells were transfected with the usage of Superfect™ transfect reagent (Qiagen, 301307). Cells were trypsinized briefly 1 day before transfection and plated on 6 well plate (5×10^5 cells/well) so that they were 50-80% confluent on the day of transfection.
Four microgram (TOPFlash) and one microgram (pRL-null) of DNAs were diluted in 150 μl of serum-free medium, and 30 μl of Superfect™ transfect reagent was added. The DNA-Superfect mixture was incubated at room temperature for 15 min, and then, 1 ml of 10% FBS DMEM was added to this complex for an additional 3 hours of incubation. While complexes were forming, cells were washed with PBS twice without antibiotics.
The DNA-Superfect™ transfect reagent complexes were applied to the cells before incubating at 37° C. at 5% CO2 for 3 hours. After incubation, recovery medium with 10% FBS was added to bring the final volume to 1.18 ml. After 3 hours incubation, the cells were harvested and reseeded to 96 well plate (3×10^4 cells/well). After overnight incubation at 37° C. at 5% CO2, the cells were treated with Compound A for 24 hours. Finally, the activity was checked by means of luciferase assay (Promega, E1960).
Consider `[2H]C([2H])(c1ccc(O)cc1)[C@H]1C(=O)N(Cc2cccc3ccccc23)C[C@H]2N1C(=O)CN(C)N2C(=O)NCc1ccccc1` [Compound 165], for which the IC50 is 3.9 ± 0.3 µM.
As for `CC(c1ccc(F)cc1)N1C[C@H]2N(C(=O)CN(C)N2C(=O)NCc2ccccc2)[C@@H](Cc2ccc(O)cc2)C1=O` (some centres unmarked) [Compound 37], the IC50 was determined as 2.3 µM.
On to `C=CCN1CC(=O)N2[C@@H](Cc3ccc(O)cc3)C(=O)N(Cc3ccccc3)C[C@@H]2N1C(=O)NCc1ccc(Cl)c(Cl)c1` [Compound 207], for which the IC50 came out at 1.5 ± 0.1 µM.
`CN1CC(=O)N2[C@@H](Cc3ccc(O)cc3)C(=O)N(Cc3cccc(N4CCCC4=O)c3)C[C@@H]2N1C(=O)NCc1ccccc1` [Compound 150]: the IC50 was 12.7 ± 0.7 µM.
In the case of `CN1CC(=O)N2[C@@H](Cc3ccc(O)cc3)C(=O)N(Cc3cccc4cn(Cc5cccc(N)c5)nc34)C[C@@H]2N1C(=O)NCc1ccccc1` [Compound 91], the concentration for half-maximal inhibition (IC50) came to 2.9 ± 0.2 µM.
To `C=CCN1CC(=O)N2[C@@H](Cc3ccc(OP(=O)(O)O)cc3)C(=O)N(Cc3cccc4scnc34)C[C@@H]2N1C(=O)NCc1ccccc1` [Compound 197] belongs 0.7 ± 0.2 µM; to `CN(C)c1cc(F)ccc1CN1C[C@H]2N(C(=O)CN(C)N2C(=O)NCc2ccccc2)[C@@H](Cc2ccc(O)cc2)C1=O` [Compound 50], 1.3 µM.
The value for `CN1CC(=O)N2[C@@H](Cc3ccc(O)cc3)C(=O)N(Cc3ccc(F)cc3C(F)(F)F)C[C@@H]2N1C(=O)NCc1ccccc1` [Compound 44] was 1.3 µM; that for `C#CCN1CC(=O)N2[C@@H](Cc3ccc(O)cc3)C(=O)N(Cc3cccc(OCCN4CCOCC4)c3)C[C@@H]2N1C(=O)NCc1ccccc1` [Compound 131] was 2.2 ± 0.3 µM.
Take `CN1CC(=O)N2C(CN(Cc3ccccc3F)C(=O)[C@@H]2Cc2ccc(O)cc2)N1C(=O)NCc1ccccc1` (some centres unmarked) [Compound 8]: the IC50 amounted to 14.5 µM.
Consider `CN1CC(=O)N2C(CN(Cc3ccc(Cl)cc3Cl)C(=O)[C@@H]2Cc2ccc(O)cc2)N1C(=O)NCc1ccccc1` (some centres unmarked) [Compound 19], for which the 50% inhibitory concentration (IC50) is 11.5 µM.
To `CC(C)N(C)c1cc([C@@H](C)N2C[C@H]3N(C(=O)CN(C)N3C(=O)NCc3ccccc3)[C@@H](Cc3ccc(O)cc3)C2=O)ccc1F` [Compound 62] belongs 9.7 ± 1.7 µM; to `CN1CC(=O)N2C(CN(Cc3ccc(F)cc3F)C(=O)[C@@H]2Cc2ccc(O)cc2)N1C(=O)NCc1ccccc1` (some centres unmarked) [Compound 13], 6.4 µM; to `CN1CC(=O)N2[C@@H](Cc3ccc(O)cc3)C(=O)N(Cc3ccc4ccccc4n3)C[C@@H]2N1C(=O)NCc1ccccc1` [Compound 39], 9.7 µM.
The value for `COC(=O)c1ccccc1Cn1ncc2c(CN3C[C@H]4N(C(=O)CN(C)N4C(=O)NCc4ccccc4)[C@@H](Cc4ccc(O)cc4)C3=O)cccc21` [Compound 99] was 2.4 ± 0.3 µM; that for `[2H]c1cc(C[C@H]2C(=O)N(Cc3cccc4ccccc34)C[C@H]3N2C(=O)CN(C)N3C(=O)NCc2ccccc2)cc([2H])c1O` [Compound 166] was 3.3 ± 0.2 µM; that for `CN1CC(=O)N2[C@@H](Cc3ccc(O)cc3)C(=O)N(Cc3ccc4ncsc4c3)C[C@@H]2N1C(=O)NCc1ccccc1` [Compound 77] was 7.2 ± 2.5 µM.
To `CCCN1CC(=O)N2[C@@H](Cc3ccc(O)cc3)C(=O)N(Cc3cc(N(C)C(C)C)cc(C(F)(F)F)c3)C[C@@H]2N1C(=O)NCc1ccccc1` [Compound 155] belongs 30.5 ± 4.1 µM.
`CN1CC(=O)N2[C@@H](Cc3ccc(O)cc3)C(=O)N(Cc3cccc4cnn(Cc5ccc(N)cc5)c34)C[C@@H]2N1C(=O)NCc1ccccc1` [Compound 104]: the IC50 is 4.6 ± 0.4 µM.
To `[2H]c1cc(O)cc([2H])c1C[C@H]1C(=O)N(Cc2cccc3ccccc23)C[C@H]2N1C(=O)CN(C)N2C(=O)NCc1ccccc1` [Compound 172] belongs 2.9 ± 0.4 µM.
To `C=CCN1CCN2[C@@H](Cc3ccc(O)cc3)C(=O)N(Cc3ccc(OC(F)(F)F)cc3)C[C@@H]2N1C(=O)NCc1ccccc1` [Compound 211] belongs 2.3 ± 0.2 µM; to `CC(C)N(C)c1cc(CN2C[C@H]3N(C(=O)CN(C)N3C(=O)NCc3ccccc3)[C@@H](Cc3ccc(O)cc3)C2=O)ccc1Cl` [Compound 54], 23.6 ± 5.6 µM; to `C#CCN1CC(=O)N2[C@@H](Cc3ccc(O)cc3)C(=O)N(Cc3ccc(Cl)c4cccnc34)C[C@@H]2N1C(=O)NCc1ccccc1` [Compound 138], 1 ± 0.2 µM.
The value for `C#CCN1CC(=O)N2[C@@H](Cc3ccc(O)cc3)C(=O)N(Cc3cccc4cccnc34)C[C@@H]2N1C(=O)NCc1ccccc1` [Compound 114] was 0.4 ± 0.04 µM; that for `Cc1cc(C)c(N(C)C)c(CN2C[C@H]3N(C(=O)CN(C)N3C(=O)NCc3ccccc3)[C@@H](Cc3ccc(O)cc3)C2=O)c1` [Compound 51] was 4.8 µM; that for `CN1CC(=O)N2[C@@H](Cc3ccc(O)cc3)C(=O)N(Cc3cccc4c3cnn4C)C[C@@H]2N1C(=O)NCc1ccccc1` [Compound 56] was 9.3 ± 1.6 µM.
For `CN(C)Cc1cccc(CN2C[C@H]3N(C(=O)CN(C)N3C(=O)NCc3ccccc3)[C@@H](Cc3ccc(O)cc3)C2=O)c1` [Compound 116], the IC50 was found to be 8 ± 0.7 µM.
The value for `CN1CC(=O)N2[C@@H](Cc3ccc(O)cc3)C(=O)N(Cc3cccc4ncccc34)C[C@@H]2N1C(=O)NCc1ccccc1` [Compound 33] was 13 µM.
To `CCN(C)c1cccc(CN2C[C@H]3N(C(=O)CN(C)N3C(=O)NCc3ccccc3)[C@@H](Cc3ccc(O)cc3)C2=O)c1` [Compound 46] belongs 4.4 µM; to `CN1CC(=O)N2[C@@H](Cc3ccc(O)cc3)C(=O)N(Cc3cccc4[nH]ncc34)C[C@@H]2N1C(=O)NCc1ccccc1` [Compound 70], 8.8 ± 1.9 µM.
To `CN1CC(=O)N2[C@@H](Cc3ccc(OCC(=O)O)cc3)C(=O)N(Cc3cccc4ccccc34)C[C@@H]2N1C(=O)NCc1ccccc1` [Compound 52] belongs 25 µM; to `C=CCc1nc2c(CN3C[C@H]4N(C(=O)CN(CC=C)N4C(=O)NCc4ccccc4)[C@@H](Cc4ccc(O)cc4)C3=O)cccc2s1` [Compound 220], 1.1 ± 0.3 µM.
Take `C=CCN1CC(=O)N2[C@@H](CC3(O)C=CC(=O)C=C3)C(=O)N(Cc3ccc(F)cc3F)C[C@@H]2N1C(=O)NCc1ccccc1` [Compound 181]: the IC50 worked out at 6.7 ± 0.6 µM.
The value for `C[C@H](c1ccccc1)N1CC2N(C(=O)CN(C)N2C(=O)NCc2ccccc2)[C@@H](Cc2ccc(O)cc2)C1=O` (some centres unmarked) [Compound 20] was 5.1 µM.
The value for `C[C@H](c1ccc(Cl)c2cccnc12)N1CC2N(C(=O)CN(C)N2C(=O)NCc2ccccc2)[C@@H](Cc2ccc(O)cc2)C1=O` (some centres unmarked) [Compound 198] was 5.8 ± 0.3 µM; that for `Cc1ccc([C@@H](C)N2C[C@H]3N(C(=O)CN(C)N3C(=O)NCc3ccccc3)[C@@H](Cc3ccc(O)cc3)C2=O)cc1` [Compound 41] was 13.6 µM.
To `CC(C)N(C)c1ccc(F)c([C@H](C)N2C[C@H]3N(C(=O)CN(C)N3C(=O)NCc3ccccc3)[C@@H](Cc3ccc(O)cc3)C2=O)c1` [Compound 65] belongs 19 ± 7.1 µM; to `C=CCN1CC(=O)N2[C@@H](Cc3ccc(O)cc3)C(=O)N(Cc3cc(N(C)C(C)C)cc(C(F)(F)F)c3)C[C@@H]2N1C(=O)NCc1ccccc1` [Compound 156], 13.3 ± 1.6 µM.
Regarding `C=CCN1CC(=O)N2[C@@H](Cc3ccc(O)cc3)C(=O)N(Cc3ccccc3)C[C@@H]2N1C(=O)NCc1ccccc1` [Compound 164], the IC50 is 1.1 ± 0.2 µM.
As to `CN1CC(=O)N2[C@@H](Cc3ccc(O)cc3)C(=O)N(Cc3ccccc3C(F)(F)F)C[C@@H]2N1C(=O)NCc1ccccc1` [Compound 32], the IC50 is 4.1 µM.
The value for `C#CCN1CC(=O)N2[C@@H](Cc3ccc(O)cc3)C(=O)N(Cc3cccc(N4CCOCC4)c3)C[C@@H]2N1C(=O)NCc1ccccc1` [Compound 118] was 0.8 ± 0.1 µM.
The value for `C=CCN1CC(=O)N2[C@@H](Cc3ccc(O)cc3)C(=O)N(Cc3ccc(Cl)c4scnc34)C[C@@H]2N1C(=O)NCc1ccccc1` [Compound 222] was 3.8 ± 2.7 µM.
The value for `CN1CC(=O)N2[C@@H](Cc3ccc(O)cc3)C(=O)N(Cc3cccc4cnn(CCN5CCOCC5)c34)C[C@@H]2N1C(=O)NCc1ccccc1` [Compound 94] was 7.6 ± 0.6 µM.
`C=CCN1CC(=O)N2[C@@H](Cc3ccc(O)cc3)C(=O)N(Cc3cccc4scnc34)C[C@@H]2N1C(=O)NCc1ccccc1` [Compound 182]: the IC50 is 0.6 ± 0.04 µM.
For `C=CCN1CC(=O)N2[C@@H](Cc3ccc(O)cc3)C(=O)N(Cc3ccc(F)c4scnc34)C[C@@H]2N1C(=O)NCc1ccccc1` [Compound 223], the IC50 was 0.6 ± 0.1 µM.
The value for `C=CCN1CC(=O)N2[C@@H](Cc3ccc(O)cc3)C(=O)N(Cc3cc(F)c(F)cc3N(C)C)C[C@@H]2N1C(=O)NCc1ccccc1` [Compound 162] was 1.8 ± 0.6 µM; that for `C#CCN1CC(=O)N2[C@@H](Cc3ccc(O)cc3)C(=O)N(Cc3ccc(F)cc3F)[C@@H](C)[C@@H]2N1C(=O)NCc1ccccc1` [Compound 111] was 7.2 ± 0.8 µM.
To `C=CCN1CC(=O)N2[C@@H](Cc3ccc(O)cc3)C(=O)N(Cc3ccc(Cl)c(N(C)C)c3)C[C@@H]2N1C(=O)NCc1ccccc1` [Compound 129] belongs 2.4 ± 0.5 µM.
With `C#CCN1CC(=O)N2[C@@H](Cc3ccc(O)cc3)C(=O)N(Cc3ccc(Cl)c(N4CCOCC4)c3)C[C@@H]2N1C(=O)NCc1ccccc1` [Compound 140], the half-maximal inhibitory concentration (IC50) was 2.7 ± 0.3 µM.
To `C=CCN1CC(=O)N2[C@@H](Cc3ccc(O)cc3)C(=O)N(Cc3ccc4c(c3)OCCN4C)C[C@@H]2N1C(=O)NCc1ccccc1` [Compound 147] belongs 9.4 ± 1 µM.

One may read the IC50 as the concentration needed to halve the response being measured.
